# Assays:
# Format in all cases: in vivo, corn (Zea mays)
# [1] = system: Nontransgenic corn plants (H99); experiment: Kanamycin, paromomycin and the combination with and without surfactant; conditions: 20 μL, 5 plants, seven days
# Experimental: Nontransgenic corn plants (H99) were tested at 24 days old using 5 plants for each treatment. Plants were treated with and without surfactant at two different concentrations of paromomycin, kanamycin, and the combination of paromomycin and kanamycin._On the day of application, an antibiotic solutions consisting of 750 mg/L or 1000 mg/L paromomycin and 0.06% (v/v) SILWET L-77 was prepared, as was a control solution consisting of 750 mg/L or 1000 mg/L of paromomycin in water. […] Antibiotic solution (20 μL) was applied to the whorl of each corn plant, from which any standing water has been removed beforehand.
# [2] = system: Nontransgenic 3-week-old corn seedlings; experiment: Titration of selective agents with cotton rolls tied to the whorl
# Experimental: Nontransgenic 3-week-old corn seedlings were assayed in order to determine the quantity of selective agent necessary in order to obtain a response. […] Cotton rolls were saturated with solutions consisting of 0.03% SILWET L-77 and various concentrations of each of these three antibiotics individually and tied to the whorl of plants to be tested.
# The concentrations of genenticin tested were 25 mg/mL, 50 mg/mL, 75 mg/mL, and 100 mg/mL.
# [3] = system: corn plants containing NPTII protein; experiment: Paromomycin as selective agent to identify corn plants containing NPTII protein (predicted); conditions: 10 μL of 1000 mg/L paromomycin and 0.06% (v/v) SILWET L-77; five days
# From the text: Samples of the plants may be taken and analyzed by ELISA for the presence or absence of NPTII protein prior to the start of the field test. […] Negative controls (i.e., nontransgenic plants) may be divided into two equal groups. […] The treated plants may then be scored for the presence or absence of necrosis five days after application of the antibiotic/[…]-77 solution or control solution. […] The field assay scores may then be correlated with the […] results.
# [4] = 750 mg/L (each antibiotic), with 0.06% SILWET L-77
# [5] = 750 mg/L (each antibiotic), without SILWET L-77
# [6] = 1000 mg/L (each antibiotic), with 0.06% SILWET L-77
# [7] = 1000 mg/L (each antibiotic), without SILWET L-77
SMILES,"number of plants with mild symptoms [1, 4]","number of plants with no symptoms [1, 4]","number of plants with severe necrosis [1, 4]","number of plants with mild symptoms [1, 5]","number of plants with no symptoms [1, 5]","number of plants with severe necrosis [1, 5]","number of plants with mild symptoms [1, 6]","number of plants with no symptoms [1, 6]","number of plants with severe necrosis [1, 6]","number of plants with mild symptoms [1, 7]","number of plants with no symptoms [1, 7]","number of plants with severe necrosis [1, 7]","bleaching and necrosis in treated plant leaves ([2]; 300 mg/L, 500 mg/L and 750 mg/L in 0.03% SILWET L-77, two days)","bleaching and necrosis in treated plant leaves ([2]; 1000 mg/L in 0.03% SILWET L-77, two days)",necrosis relative to similarly treated leaves of corn plants that do not contain NPTII protein [3]
NC[C@H]1O[C@H](O[C@H]2[C@H](O)[C@@H](O[C@H]3O[C@H](CO)[C@@H](O)[C@H](N)[C@H]3O)[C@H](N)C[C@@H]2N)[C@H](O)[C@@H](O)[C@@H]1O [kanamycin],0,0,5,1,4,0,2,0,3,1,4,0,,,
NC[C@@H]1O[C@H](O[C@H]2[C@@H](O)[C@H](O[C@@H]3[C@@H](O)[C@H](N)C[C@H](N)[C@H]3O[C@H]3O[C@H](CO)[C@@H](O)[C@H](O)[C@H]3N)O[C@@H]2CO)[C@H](N)[C@@H](O)[C@@H]1O [paromomycin],0,2,3,0,5,0,0,1,4,0,5,0,Slight to moderate necrosis and some bleaching,extreme necrosis and some bleaching,reduced or no necrosis

# Source: patent US20030017599A1, “Assay for the detection of selectable marker expression in plants” (priority 1999, published 2003)
